Converted amounts (≈) assume the structure as drawn.
Columns and labels:
[1] = Excretion/elimination of 14C-labeled leflutrozole after oral dosing; format: in vivo; conditions: female rats
P-glycoprotein = P-glycoprotein (Homo sapiens, UniProt P08183); assay: P-glycoprotein inhibition; format: in vitro ADME; conditions: at concentrations above 200 μM
Pharmacokinetics in rats = format: in vivo; conditions: for AUC(0-inf) / half-life / AUC(0-t) / Cmax: 1 mg/kg; for AUC(0-t): AUC 0-24^1/48^2 h
[2] = Dissolution experiments with capsules; format: physicochemical; conditions: drug substance particle sizes up to D90 ≤35 μm
CYP2A6 = target: T1, CYP2A6 (Homo sapiens, UniProt P11509); assay: CYP inhibition, pooled human liver microsomes, probe substrates; format: in vitro ADME
T1 construct: assessed by pooled human liver microsomes using enzyme selective probe substrates; from tissue; host or cells: pooled human liver microsomes
T1 sequence (P11509 1-494): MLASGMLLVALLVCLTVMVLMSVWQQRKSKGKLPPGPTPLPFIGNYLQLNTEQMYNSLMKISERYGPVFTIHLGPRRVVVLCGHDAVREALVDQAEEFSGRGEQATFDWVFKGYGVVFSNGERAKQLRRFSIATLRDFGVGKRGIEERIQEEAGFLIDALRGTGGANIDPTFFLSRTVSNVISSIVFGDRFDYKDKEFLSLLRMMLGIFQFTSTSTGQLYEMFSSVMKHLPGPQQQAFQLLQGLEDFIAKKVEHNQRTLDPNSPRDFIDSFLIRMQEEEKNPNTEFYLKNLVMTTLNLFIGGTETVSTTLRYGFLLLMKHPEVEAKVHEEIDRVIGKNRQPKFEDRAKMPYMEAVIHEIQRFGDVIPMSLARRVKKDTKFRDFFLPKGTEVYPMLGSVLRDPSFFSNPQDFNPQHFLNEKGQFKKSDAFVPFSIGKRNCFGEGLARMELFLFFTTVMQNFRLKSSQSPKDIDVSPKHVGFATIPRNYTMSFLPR

CYP3A4/5 = assay: as above; format: in vitro ADME; conditions: up to 100 μM
CYP2E1 = target: T2, CYP2E1 (Homo sapiens, UniProt P05181); assay: as above; format: in vitro ADME; conditions: up to 100 μM
T2 construct: assessed by pooled human liver microsomes using enzyme selective probe substrates; from tissue; host or cells: pooled human liver microsomes
T2 sequence (P05181 whole entry): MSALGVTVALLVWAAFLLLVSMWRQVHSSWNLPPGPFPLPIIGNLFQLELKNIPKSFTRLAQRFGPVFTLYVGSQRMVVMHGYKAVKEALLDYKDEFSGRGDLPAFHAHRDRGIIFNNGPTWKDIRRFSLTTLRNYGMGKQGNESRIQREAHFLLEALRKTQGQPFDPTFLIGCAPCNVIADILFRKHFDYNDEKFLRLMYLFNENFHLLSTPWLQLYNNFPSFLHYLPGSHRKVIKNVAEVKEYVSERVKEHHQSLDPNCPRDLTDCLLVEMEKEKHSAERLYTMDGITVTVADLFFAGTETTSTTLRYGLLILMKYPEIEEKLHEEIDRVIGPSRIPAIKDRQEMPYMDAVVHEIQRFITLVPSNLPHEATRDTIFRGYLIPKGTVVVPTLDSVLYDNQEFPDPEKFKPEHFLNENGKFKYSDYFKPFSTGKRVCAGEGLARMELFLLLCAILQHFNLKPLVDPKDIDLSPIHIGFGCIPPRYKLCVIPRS

CYP2C8 = target: T3, CYP2C8 (Homo sapiens, UniProt P10632); assay: as above; format: in vitro ADME; conditions: up to 100 μM
T3 construct: assessed by pooled human liver microsomes using enzyme selective probe substrates; from tissue; host or cells: pooled human liver microsomes
T3 sequence (P10632 1-490): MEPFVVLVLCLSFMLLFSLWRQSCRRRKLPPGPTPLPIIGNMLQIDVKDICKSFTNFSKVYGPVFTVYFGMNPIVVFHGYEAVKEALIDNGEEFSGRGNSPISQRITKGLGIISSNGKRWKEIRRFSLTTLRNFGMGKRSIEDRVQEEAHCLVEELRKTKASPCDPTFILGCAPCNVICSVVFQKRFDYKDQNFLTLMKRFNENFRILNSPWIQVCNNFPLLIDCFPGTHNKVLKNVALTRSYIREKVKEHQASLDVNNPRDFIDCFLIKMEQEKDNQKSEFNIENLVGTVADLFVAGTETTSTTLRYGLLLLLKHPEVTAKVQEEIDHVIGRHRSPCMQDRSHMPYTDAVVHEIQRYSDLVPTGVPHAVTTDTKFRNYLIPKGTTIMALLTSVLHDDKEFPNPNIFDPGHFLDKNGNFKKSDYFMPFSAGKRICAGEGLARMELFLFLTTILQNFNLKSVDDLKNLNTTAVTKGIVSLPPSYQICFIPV

[3] = tested on: obese and overweight men with hypogonadism and low total motile sperm count; assay: Randomized, double-blind phase IIb trial of oral leflutrozole; format: in vivo, human; conditions: for Semen Volume, change from baseline, LS mean difference (95% CI) vs. placebo / Sperm Morphology, change from baseline, LS mean difference (95% CI) vs. placebo / Sperm Motility, change from baseline, LS mean difference (95% CI) vs. placebo / Spermatozoa, change from baseline, LS mean difference (95% CI) vs. placebo / Total Motile Sperm Count, change from baseline, LS mean difference (95% CI) vs. placebo: Week 20; for Estradiol, Initial: baseline; for population with testosterone normalization: day 8 of treatment (2nd visit); for Estradiol, Change: to week 24; for FSH increase / estradiol decrease / mean LH increase: week 24
Procedure: The primary endpoint of the study is a change in testosterone levels after 24 weeks of treatment. […] Normalization of testosterone, for the purposes of this trial, was considered to be between 300 and 1000 ng/dL (10.4 and 35 nmol/L, respectively). Levels above 1000 ng/dL are furthermore considered abnormal.

[4] = Dynamic vapor sorption (DVS); format: physicochemical
Procedure: Crystalline Form A leflutrozole was determined to be non-hygroscopic.

Kinetic solubility = format: physicochemical; conditions: aqueous buffer, kinetic from dmso stock; room temperature, aqueous solutions between pH 1.0 and pH 6.8
[5] = Intrinsic dissolution rate; format: physicochemical; conditions: for Intrinsic DR value: 37° C., 50 rpm, 720 min
Procedure: The intrinsic dissolution rate is very low for Form A of leflutrozole, even in the presence of sodium dodecyl sulfate (SDS). The rate was determined in 0.1 N hydrochloric acid (HCl) and 0.001 N HCl.

[6] = rat, in vivo, iv, 1 mg/kg i.v., PEG200-0.9% Saline-solution 40/60
[7] = rat, in vivo, po, 1 mg/kg p.o., PEG200-water-solution 40/60
[8] = rat, in vivo, po, 1 mg/kg p.o., Suspension 0.5% HPC

Sequence of P-glycoprotein (P08183 whole entry): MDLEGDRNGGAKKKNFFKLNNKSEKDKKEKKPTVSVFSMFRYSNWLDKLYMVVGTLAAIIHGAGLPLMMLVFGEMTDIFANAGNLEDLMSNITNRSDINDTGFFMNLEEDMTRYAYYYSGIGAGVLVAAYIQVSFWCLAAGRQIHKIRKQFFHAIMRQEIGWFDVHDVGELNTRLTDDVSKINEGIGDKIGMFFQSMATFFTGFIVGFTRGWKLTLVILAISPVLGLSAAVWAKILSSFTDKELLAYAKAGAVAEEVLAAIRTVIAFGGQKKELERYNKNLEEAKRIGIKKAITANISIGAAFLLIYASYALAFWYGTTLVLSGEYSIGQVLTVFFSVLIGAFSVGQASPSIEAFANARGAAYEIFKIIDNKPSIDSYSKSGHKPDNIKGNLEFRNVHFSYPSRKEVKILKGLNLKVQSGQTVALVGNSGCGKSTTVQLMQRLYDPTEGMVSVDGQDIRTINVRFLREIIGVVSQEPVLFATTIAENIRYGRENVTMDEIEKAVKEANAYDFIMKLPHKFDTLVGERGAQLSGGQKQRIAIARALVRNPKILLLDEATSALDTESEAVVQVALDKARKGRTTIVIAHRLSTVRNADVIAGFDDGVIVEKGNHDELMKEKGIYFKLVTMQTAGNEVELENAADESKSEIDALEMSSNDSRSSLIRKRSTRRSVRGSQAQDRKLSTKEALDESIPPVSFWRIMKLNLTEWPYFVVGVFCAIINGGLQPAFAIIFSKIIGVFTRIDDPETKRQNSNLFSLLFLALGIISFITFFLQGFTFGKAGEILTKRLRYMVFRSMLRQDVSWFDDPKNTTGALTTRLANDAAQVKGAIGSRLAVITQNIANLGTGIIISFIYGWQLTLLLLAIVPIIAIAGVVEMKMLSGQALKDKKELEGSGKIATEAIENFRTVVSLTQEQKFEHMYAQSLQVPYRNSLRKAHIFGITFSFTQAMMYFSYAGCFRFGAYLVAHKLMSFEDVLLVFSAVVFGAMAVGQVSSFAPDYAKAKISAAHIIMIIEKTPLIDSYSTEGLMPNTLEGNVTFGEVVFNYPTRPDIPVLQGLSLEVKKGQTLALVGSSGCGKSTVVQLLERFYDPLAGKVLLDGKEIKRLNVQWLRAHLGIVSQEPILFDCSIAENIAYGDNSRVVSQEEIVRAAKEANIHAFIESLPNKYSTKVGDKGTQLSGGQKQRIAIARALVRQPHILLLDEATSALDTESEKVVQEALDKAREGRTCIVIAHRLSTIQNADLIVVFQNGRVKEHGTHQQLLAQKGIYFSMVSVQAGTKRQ

N#Cc1ccc(C(F)(c2ccc(C#N)cc2)n2cncn2)cc1 [leflutrozole, 4-[(4-cyanophenyl)-fluoro-(1,2,4-triazol-1-yl)methyl]benzonitrile]
predominant mechanism of elimination [1]: metabolism
unchanged leflutrozole excreted via urine ([1]; oral dosing): 9%
half-life ([1]; rat, plasma, oral): 78 h
inhibition of P-glycoprotein (P-glycoprotein): not determined to be an inhibitor
BAV 0-inf (Pharmacokinetics in rats; 1 mg/kg p.o., Suspension 0.5% HPC): ≥100%
clearance (Pharmacokinetics in rats; [6]): 0.383 mL/min
AUC(0-inf) (Pharmacokinetics in rats; [6]): 123 µM·h
half-life (Pharmacokinetics in rats; rat, in vivo, iv, 1 mg/kg i.v., PEG200-0.9% Saline-solution 40/60, read-out: T1/2 (converted)): 33.1 h
AUC(0-t) (Pharmacokinetics in rats; [6]): 79.4 µM·h
AUC(0-inf) (Pharmacokinetics in rats; [7]): 143 µM·h
Cmax (Pharmacokinetics in rats; [7]): 1750 nM
half-life (Pharmacokinetics in rats; rat, in vivo, po, 1 mg/kg p.o., PEG200-water-solution 40/60, read-out: T1/2 (converted)): 49.7 h
AUC(0-inf) (Pharmacokinetics in rats; [8]): 245 µM·h
Cmax (Pharmacokinetics in rats; [8]): 1810 nM
half-life (Pharmacokinetics in rats; rat, in vivo, po, 1 mg/kg p.o., Suspension 0.5% HPC, read-out: T1/2 (converted)): 101 h
AUC(0-t) (Pharmacokinetics in rats; [7]): 70.2 µM·h
AUC(0-t) (Pharmacokinetics in rats; [8]): 163 µM·h
half-life (Pharmacokinetics in rats; rat, in vivo, po, read-out: half-life (converted)): 101 h
influence of particle size on dissolution of capsules [2]: no relevant influence on dissolution
Ki (CYP2A6): 2.56 µM
IC50 (CYP3A4/5): > 50 µM
IC50 (CYP2E1): > 50 µM
IC50 (CYP2C8): > 50 µM
Estradiol, Week 24 Measurement ([3]; 0.1 mg): 12.94 pg/mL
subjects with normalized testosterone (300-1000 ng/dL), number ([3]; 0.1 mg weekly, after 24 weeks): 59 subjects
Semen Volume, change from baseline, LS mean difference (95% CI) vs. placebo ([3]; 0.1 mg): 0.7 mL
Sperm Morphology, change from baseline, LS mean difference (95% CI) vs. placebo ([3]; 0.1 mg): −1.9 %
Sperm Motility, change from baseline, LS mean difference (95% CI) vs. placebo ([3]; 0.1 mg): 2.7 %
Spermatozoa, change from baseline, LS mean difference (95% CI) vs. placebo ([3]; 0.1 mg): 130.4 (−65.3, 10^6/ejaculate
Total Motile Sperm Count, change from baseline, LS mean difference (95% CI) vs. placebo ([3]; 0.1 mg): 86.3 (−24.5, 10^6/ejaculate
Estradiol, Initial ([3]; 0.1 mg): 24.69 pg/mL
population with testosterone normalization ([3]; 0.1 mg): 80.6%
Estradiol, Change ([3]; 0.1 mg): -11.75 pg/mL
FSH increase ([3]; 0.1 mg): 4.836 mlU/mL
estradiol decrease ([3]; 0.1 mg): 11.8 pg/mL
mean LH increase ([3]; 0.1 mg): 2.108 mlU/mL
Estradiol, Week 24 Measurement ([3]; 0.3 mg): 11.84 pg/mL
subjects with normalized testosterone (300-1000 ng/dL), number ([3]; 0.3 mg weekly, after 24 weeks): 62 subjects
Semen Volume, change from baseline, LS mean difference (95% CI) vs. placebo ([3]; 0.3 mg): 0.8 mL
Sperm Morphology, change from baseline, LS mean difference (95% CI) vs. placebo ([3]; 0.3 mg): −2.6 %
Sperm Motility, change from baseline, LS mean difference (95% CI) vs. placebo ([3]; 0.3 mg): −0.1 %
Spermatozoa, change from baseline, LS mean difference (95% CI) vs. placebo ([3]; 0.3 mg): 90.2 (−126.5, 10^6/ejaculate
Total Motile Sperm Count, change from baseline, LS mean difference (95% CI) vs. placebo ([3]; 0.3 mg): 54.2 (−77.3, 10^6/ejaculate
Estradiol, Initial ([3]; 0.3 mg): 24.80 pg/mL
population with testosterone normalization ([3]; 0.3 mg): 89.1%
Estradiol, Change ([3]; 0.3 mg): -12.96 pg/mL
FSH increase ([3]; 0.3 mg): 6.183 mlU/mL
estradiol decrease ([3]; 0.3 mg): 13 pg/mL
mean LH increase ([3]; 0.3 mg): 3.560 mlU/mL
Estradiol, Week 24 Measurement ([3]; 1.0 mg): 8.63 pg/mL
subjects with normalized testosterone (300-1000 ng/dL), number ([3]; 1.0 mg weekly, after 24 weeks): 63 subjects
subjects with normalized testosterone (300-1000 ng/dL), percent ([3]; 1.0 mg weekly, after 24 weeks): 94.0%
Semen Volume, change from baseline, LS mean difference (95% CI) vs. placebo ([3]; 1.0 mg): 1.4 mL
Sperm Morphology, change from baseline, LS mean difference (95% CI) vs. placebo ([3]; 1.0 mg): −4.1 %
Sperm Motility, change from baseline, LS mean difference (95% CI) vs. placebo ([3]; 1.0 mg): −1.2 %
Spermatozoa, change from baseline, LS mean difference (95% CI) vs. placebo ([3]; 1.0 mg): 270.1 (65.0, 10^6/ejaculate
Total Motile Sperm Count, change from baseline, LS mean difference (95% CI) vs. placebo ([3]; 1.0 mg): 127.7 (12.6, 10^6/ejaculate
Estradiol, Initial ([3]; 1.0 mg): 23.47 pg/mL
population with testosterone normalization ([3]; 1.0 mg): 89.1%
Estradiol, Change ([3]; 1.0 mg): -14.84 pg/mL
FSH increase ([3]; 1.0 mg): 8.282 mlU/mL
estradiol decrease ([3]; 1.0 mg): 14.8 pg/mL
mean LH increase ([3]; 1.0 mg): 5.209 mlU/mL
primary endpoint (≥75% of subjects with normalization of testosterone by week 24) ([3]; all leflutrozole treatment groups): met in all leflutrozole treatment groups
changes from baseline vs placebo in triglycerides, HbA1c, glucose and C-reactive protein ([3]; during the study, p>0.05): No statistically significant changes
insulin and HOMA-IR compared with placebo ([3]; leflutrozole treatment groups, none met statistical significance): Consistent decreases
semen volume improvement, LS mean difference (95% CI) ([3]; stated as across all active treatment arms): 1.4 (0.4, 2.3) mL
sperm count compared to placebo (in words) ([3]; weeks 12 and 20, all three treatment arms): increases were observed across all three treatment arms compared to placebo

N#Cc1ccc(C(F)(c2ccc(C#N)cc2)n2cncn2)cc1 [Form A leflutrozole, 4-[(4-cyanophenyl)-fluoro-(1,2,4-triazol-1-yl)methyl]benzonitrile]
hygroscopicity [4]: non-hygroscopic
maximum water uptake (DVS) ([4]; 25° C., up to 95% relative humidity): < 0.2%
solubility kinetic (Kinetic solubility): ~0.0607 µg/mL (≈ 0.2 µM)
Intrinsic DR value ([5]; HCl 0.001N + 1% SDS): 0.0167 mg/min/cm^2
Intrinsic DR value ([5]; HCl 0.1N + 1% SDS): 0.0162 mg/min/cm^2
intrinsic dissolution rate (in words) ([5]; even in the presence of sodium dodecyl sulfate): very low
